Source: US11821895B2, “Functional cortical organoids, methods of making, and uses thereof” (priority 2017, dated 2023)

Tested on: cortical organoids
Test: Pharmacological perturbation of network activity in cortical organoids, multi-electrode array (MEA) recordings
Assay type: cell-based, human

## NC(CCCP(=O)(O)O)C(=O)O (stereo not drawn) [AP5]
  number of bursts / burst activity: significantly reducing the number of bursts
  synchronous activity / synchrony indexes: extinction of synchronous activity

## N#Cc1cc2[nH]c(=O)c(=O)[nH]c2cc1[N+](=O)[O-] [CNQX]
  number of bursts / burst activity: significantly reducing the number of bursts
  synchronous activity / synchrony indexes: extinction of synchronous activity

## NC1=N[C@H](O)[C@H]2[C@H]3O[C@]4(O)O[C@@H]([C@@H](O)[C@@]2(N1)[C@@H]4O)[C@]3(O)CO [TTX, tetrodotoxin]
  neuronal electrical activity: blocked

## NCC(CC(=O)O)c1ccc(Cl)cc1 (stereo not drawn) [baclofen]
  network bursts (synchrony): reversibly extinguish the network bursts (synchrony)
  number of bursts / burst activity: significantly reducing the number of bursts
  number of network events: completely abolishes synchronized network events
  synchronous activity / synchrony indexes: extinction of synchronous activity

## NCc1cc(=O)[nH]o1 [muscimol]
  network bursts (synchrony): reversibly extinguish the network bursts (synchrony)
  number of bursts / burst activity: significantly reducing the number of bursts
  synchronous activity / synchrony indexes: extinction of synchronous activity
